Earlier results on 1 molecule are cited in patent US20190175610A1 (priority 2017, published 2019).

The conditions of the series: athletes, during exercise after oral supplementation.

Regarding `C[N+](C)(C)C[C@H](O)CC(=O)[O-]` [L-carnitine, γ-trimethylamino-β-hydroxybutyrate], the “benefit on fatty acid metabolism” value is “no benefit”.
